# Test results taken from PMC11928584, “H105A peptide eye drops promote photoreceptor survival in murine and human models of retinal degeneration” (Communications Medicine, 2025).
# Where a SMILES comes first, the peptide text is derived from it.
# Assay: Stability of peptide H105A against temperature (storage)
# Format: physicochemical
# Procedure: Lyophilized peptides were dissolved in sterile HBSS at 1 mg/ml and stored at −20 °C. Before the peptides were used, the peptide solution was brought to room temperature and subjected to centrifugation (Eppendorf, Centrifuge 5430 R) at 20,800 x g for 10 min at 4 °C to clear and separate particulate material. In case a precipitate was found, the pH of the solution was adjusted to neutral pH with either NaOH or HCl and all peptides were soluble. The concentration of peptide solutions was determined using spectrophotometry (NanoDrop, Thermo Fisher Scientific). The stability of peptide H105A against temperature was performed and summarized in Supplementary Table 2.
# Supplementary Table 2. Stability of 17- mer[H105A] peptide.
# Concentration (mg/mL) Store Concentration (mg/mL)
# *FT, Freeze and thaw cycles daily
smiles,measurement,setting,value
CC[C@H](C)[C@H](NC(=O)[C@H](CC(C)C)NC(=O)[C@H](CC(=O)O)NC(=O)[C@H](Cc1ccc(O)cc1)NC(=O)[C@H](Cc1ccc(O)cc1)NC(=O)[C@H](CC(C)C)NC(=O)[C@H](C)NC(=O)[C@H](CCCNC(=N)N)NC(=O)[C@H](C)NC(=O)[C@@H](NC(=O)[C@@H](NC(=O)[C@H](CO)NC(=O)[C@H](CCC(=O)O)NC(=O)[C@@H](NC(=O)[C@H](CCCNC(=N)N)NC(=O)[C@@H](N)CCC(N)=O)[C@@H](C)O)[C@@H](C)CC)[C@@H](C)CC)C(=O)N[C@@H](CO)C(=O)O [H105A] (H-QRTESIIARALYYDLIS-OH),"Concentration, Day 8","sample 1, stored at RT",1080 µg/mL
same,"Concentration, Day 8","sample 2, stored at 4°C",1160 µg/mL
same,"Concentration, Day 8","sample 3, stored at -20°C",1080 µg/mL
same,"Concentration, Day 8","sample 4, stored at -20°C [FT], freeze and thaw cycles daily",1280 µg/mL
